PubChem BioAssay AID1996
≈ marks a conversion by molar mass, not a printed value.

conditions: buffer; pH 7.4; 200.0 µM

Compound	solubility kinetic [µg/mL]
CC(=O)Nc1ccc(OCCC[n+]2cccc(C(=O)[O-])c2)cc1	39.6 (≈ 126 µM)
O=C(COC(=O)c1ccc(F)cc1)NCCCc1ccccc1	5.9 (≈ 18.7 µM)
CN(C)Cc1c(O)ccc2c(=O)c(-c3ccc(Cl)cc3)coc12	> 49.5
O=C(c1cc([N+](=O)[O-])[nH]n1)N1CCSCC1	> 36.3
CSc1ccccc1C(=O)NCCSc1ccc(C)cc1	17.2 (≈ 54.2 µM)
Cc1ccc(OCCN2C(=O)C(=O)c3cc(C)ccc32)cc1	4.1 (≈ 13.9 µM)
CC(C)CNC(=O)c1ccc2c(c1)C(=O)N(C1CCCCC1)C2=O	4.4 (≈ 13.4 µM)
O=C(Nc1ccccc1-c1ccccc1)c1ccccc1Br	33.7 (≈ 95.7 µM)
CC(O)c1cccc(NC(=O)Cc2cccc3ccccc23)c1 (stereo unspecified)	44.7 (≈ 146 µM)
CCNC(=S)N1CCN(C(=O)C(Cc2ccccc2)NC(C)=O)CC1 (stereo unspecified)	> 54.4
O=C(c1ccc2ccccc2c1)N1CCCCC1	> 35.9
CC(=O)c1ccccc1OCCCOc1cccc2cccnc12	45.8 (≈ 143 µM)
Cl.OC(c1ccc(Cl)cc1)c1nccc2ccccc12 (stereo unspecified)	31.1
Nc1nc(C(c2ccccc2)c2ccccc2)cs1	11 (≈ 41.3 µM)
COc1ccc2nc(SC)cc(C)c2c1	3.7 (≈ 16.9 µM)
O=C1NC(=O)N(c2ccc(F)cc2)C(=O)/C1=C/c1ccsc1	> 47.4
O=C(O)c1ccccc1C(=O)NC1=NN(c2ccccc2)CC1	> 46.4
N#Cc1ccncc1S(=O)c1ccc(Cl)cc1 (stereo unspecified)	> 39.4
Cc1ccc([N+](=O)[O-])cc1N=C1C(=O)Nc2ccccc21	37.4 (≈ 133 µM)
N#CCOC(=O)C1c2ccccc2Oc2ccccc21	35.2 (≈ 133 µM)
COc1ccc(CNC(=O)Nc2cc(C)cc(C)c2)cc1	0.8 (≈ 2.81 µM)
COc1ccc(C(=O)Nc2cc3c4c(c2)C(C)C(=O)N4CCC3)cc1 (stereo unspecified)	38.6 (≈ 115 µM)
CN(C)C(=O)CN1C(=O)NC2(CCCc3ccccc32)C1=O (stereo unspecified)	> 45.2
CCN1C(=O)Nc2cccc3cccc1c23	4.9 (≈ 23.1 µM)
COc1ccc(O)c(C(=O)c2cnc3c(c2)CN(C)C(=O)N3)c1	8 (≈ 25.5 µM)

Compound	solubility kinetic [µg/mL]
O=C(COC(=O)c1cc(=O)[nH]c2ccccc12)NCc1ccccc1	20.8 (≈ 61.8 µM)
COC(=O)c1c(C(C)=O)c(C)n(C)c1C	> 31.4
COc1cccc(NC(=O)c2ccc3c(c2)OCO3)c1	> 40.7
O=C(CC(=O)c1ccccc1)Nc1ccccn1	> 36
CCc1nnc(NC(=O)CN2CCN(S(C)(=O)=O)CC2)s1	> 50
Cc1cccc(-c2noc(CCCC(=O)NC3CCCC3)n2)c1	42.2 (≈ 135 µM)
COc1ccc(/C=C/C(=O)OCC(=O)N2CCCCCC2)cc1OC	37.7 (≈ 109 µM)
Cc1[nH]c(=O)[nH]c(=O)c1N1CCOCC1	> 31.7
COc1ccc(CN2CCSc3sccc3C2=O)cc1	> 45.8
O=C(NNC(=O)C12CC3CC(CC(C3)C1)C2)c1ccccc1F	> 47.5
O=C(O)CN1C(=O)c2ccc(Oc3ccc([N+](=O)[O-])cc3)cc2C1=O	> 51.3
CCCC(=O)N/C(N)=N/c1nc(C)c2cc(C)ccc2n1	8.5 (≈ 29.8 µM)
CC(=O)c1c(C)[nH]c(C(=O)CN(C)CC(=O)Nc2ccccc2Cl)c1C	> 56.4
O=C(c1ccc2ccccc2c1)N1CCc2ccccc21	< 0.6
O=C(/C=C/c1ccc2c(c1)OCO2)NC1CCCC1	31.4 (≈ 121 µM)
CCOC(=O)C1CCCN(C(=S)Nc2ccc(OC)cc2)C1 (stereo unspecified)	46 (≈ 143 µM)
O=C(Oc1ccc([N+](=O)[O-])cc1)C1CC(=O)N(c2ccc3c(c2)OCCO3)C1 (stereo unspecified)	> 57.7
CCOC(=O)c1ccc(N=C(C)c2c(O)[nH]c(=O)[nH]c2=O)cc1	6.6 (≈ 20.8 µM)
Cc1ccc(S(=O)(=O)NC(=O)Nc2c(C)cccc2C)cc1	33.6 (≈ 106 µM)
CCOc1ccc2c(c1)ncn2Cc1ccccc1	32.4 (≈ 128 µM)
O=C1CCN(C(=S)NCc2ccccc2)CC1	> 37.3
COCc1c(C(=O)NC2CCCCCC2)oc2ccccc12	10.4 (≈ 34.5 µM)
COc1ccc(Nc2nnc(C)c(=O)[nH]2)c(OC)c1	> 39.3
O=C(NCC1CCCO1)c1ccc2[nH]c3c(c2c1)CCCC3 (stereo unspecified)	> 44.8
Cc1ccc(CNC(=O)c2nccnc2C(=O)O)cc1	> 40.7

Compound	solubility kinetic [µg/mL]
S=C(NCCC1=CCCCC1)NCc1ccco1	38.8 (≈ 147 µM)
Nc1nonc1C(=O)NCCNc1ccc([N+](=O)[O-])cc1	3.8 (≈ 13 µM)
Nc1c2c(nc3cccc(Cl)c13)N(c1ccccc1)CC2	0.9 (≈ 3.04 µM)
CCN(CC)S(=O)(=O)c1ccc2nc(CCl)[nH]c2c1	> 45.3
CCCCCCC(Cl)(Cn1ccnc1)c1ccccc1.O=[N+]([O-])O (stereo unspecified)	35.3
O=C(/C=C/c1c(F)cccc1Cl)N1CCOCC1	39.8 (≈ 148 µM)
CC(=O)N=c1sc(S(N)(=O)=O)nn1C	> 35.4
CCOc1ccc(C(C)NC(=O)Nc2ccc(F)cc2F)cc1 (stereo unspecified)	1.8 (≈ 5.62 µM)
O=Cc1cnc(N2CCCCC2)s1	27.6 (≈ 141 µM)
O=C(NCc1ccncc1)c1cc(C(=O)C2CC2)c[nH]1	36.2 (≈ 134 µM)
COc1ccc(S(=O)(=O)N2CCN(C)CC2)c(C)c1	> 42.7
Cc1n(Cc2ccccc2)c2cc([N+](=O)[O-])ccc2[n+]1Cc1ccccc1.[Cl-]	> 59.1
O=C(CCNS(=O)(=O)c1cccc(C(F)(F)F)c1)NCc1ccco1	> 56.5
Cc1ccc(S(=O)(=O)NC(C)(C)CN2CCCCC2)cc1	> 46.6
C=CCOc1ccc2c(c1)c(=O)cc(C(=O)O)n2CC	39.7 (≈ 145 µM)
O=C(c1c[nH]c2ccccc12)N1CCN(Cc2ccccc2)CC1	> 47.9
CSc1ccc(CNC(=O)c2c(C)noc2C)s1	39.8 (≈ 141 µM)
COc1ccc(C(=O)c2ccccc2)c(OCC(=O)NC2CC2)c1	31.5 (≈ 96.8 µM)
CSc1ncccc1C(=O)Nc1cccc(S(=O)(=O)N2CCCC2)c1	> 56.6
COC(=O)C(Cc1cccc(C)n1)(c1ccccc1)c1ccccc1	14.2 (≈ 42.8 µM)
Cc1c(Cl)cnc(NC(=O)COC(=O)CNC(=O)c2ccccc2)c1Cl	52.3 (≈ 132 µM)
CN(C)c1ccc(NC(=O)c2cnsn2)cc1	30.2 (≈ 122 µM)
CSc1ccccc1C(=O)N(C)Cc1ccccc1	> 40.7
CC1CC1C(=O)Nc1nc2ccc(S(C)(=O)=O)cc2s1 (stereo unspecified)	> 46.6
O=C(CSc1ccccc1)Nc1ccc(N2CCOCC2)c(F)c1	2.7 (≈ 7.79 µM)

Compound	solubility kinetic [µg/mL]
Cc1ccc(C(=O)NCCCNC(=O)COc2ccc(C)c(C)c2)cn1	49.1 (≈ 138 µM)
CCOc1ccc2nc(N3C(=O)CNC3=S)sc2c1	2.5 (≈ 8.52 µM)
CC1c2ccsc2CCN1S(=O)(=O)c1cccs1 (stereo unspecified)	23.5 (≈ 78.5 µM)
Cc1cc(C(=O)OCC(=O)N2C(C)CCCC2C)c2ccccc2n1 (stereo unspecified)	> 51.1
CC(C)[C@H](NC(=O)C1CCCC1)c1nc2ccccc2[nH]1	9.9 (≈ 34.7 µM)
O=C(NC1CCN(C(=O)c2cccs2)CC1)c1ccccc1	46.1 (≈ 147 µM)
CN(CC(=O)Nc1ccc(F)c(F)c1F)C(=O)C1CCCO1 (stereo unspecified)	> 47.4
Cc1cccc(C)c1Nc1nnc(SCC(=O)NCCCN2CCCC2=O)s1	> 62.9
CNC(=O)Nc1cccc(-c2cc(-c3c(Cl)cccc3Cl)no2)c1	< 0.3
CSc1ncccc1C(=O)NC1CCCCCCC1	21.7 (≈ 77.9 µM)
COc1ccc(NC(=O)C#Cc2ccccc2)cc1OC	37.6 (≈ 134 µM)
Cc1cc(C)cc(NS(=O)(=O)c2cccs2)c1	> 40.1
CCn1cc(S(=O)(=O)Nc2ncccn2)cn1	> 38
CSc1ncccc1C(=O)OCC(=O)N1CC2(C)CC1CC(C)(C)C2 (stereo unspecified)	> 54.4
O=C(Cc1ccccc1)c1c[nH]c(C(=O)C(Cl)(Cl)Cl)c1	28.1 (≈ 85 µM)
Cn1c(-c2ccccc2)cnc1NCc1ccccc1	34.9 (≈ 133 µM)
CN(CC(=O)NCc1ccccc1)Cc1ccc(Cl)cc1	43.3 (≈ 143 µM)
COc1ccc(C(=O)CSc2nc(C)cc(C)n2)cc1C	17.4 (≈ 57.5 µM)
Cc1ccc(Sc2ncnc3onc(C)c23)c(C)c1	1.9 (≈ 7 µM)
COc1ccc(C)cc1Nc1nc(-c2ccccc2O)nc2ccccc12	< 0.3
O=C(CNC(=O)c1ccccc1)OCN1C(=O)c2ccccc2C1=O	> 50.7
CC1(C(=O)OCC(=O)Nc2ccc(S(=O)(=O)N3CCOCC3)cc2)CC1(Cl)Cl (stereo unspecified)	60.5 (≈ 134 µM)
Cl.O=C(CN1CCCC1)NCc1ccccc1	32.6
O=C(Nc1cccnc1)C1=NN(C2CCS(=O)(=O)C2)C(=O)CC1 (stereo unspecified)	> 50.5
O=C(Nc1ccc2c(c1)OCO2)C1CC(=O)N(c2ccccc2)C1 (stereo unspecified)	3.3 (≈ 10.2 µM)

Compound	solubility kinetic [µg/mL]
Cn1ccs/c1=N\C(=O)Nc1cccc(C(F)(F)F)c1	> 45.2
O=C(CCNC(=O)c1ccccc1Cl)OCC(=O)c1ccccc1	> 51.9
O=S(=O)(Nc1cccc(S(=O)(=O)N2CCCC2)c1)c1ccc(Cl)cc1	> 60.1
Cc1cc(C)c(S(=O)(=O)NCc2csc(C)n2)c(C)c1	> 46.6
CCSc1ccc(C(=O)NCC(=O)O)cc1	> 35.9
CN(CCOC(=O)/C=C/c1ccco1)Cc1ccccc1	> 42.8
Cc1ccc(/C=C/c2ccc3cccc(O)c3n2)s1	1.4 (≈ 5.24 µM)
Cc1cnc(NC(=O)c2c(-c3ccccc3)noc2C)s1	39.8 (≈ 133 µM)
COc1ccc(C(=O)NCC(=O)OCC(=O)NCc2cccs2)cc1	> 54.4
O=C1CCCN1CCCNS(=O)(=O)c1ccc(F)c(F)c1	> 47.8
O=S1(=O)CC2SC(=S)N(c3ccccc3)C2C1 (stereo unspecified)	1.3 (≈ 4.55 µM)
Cc1ccccc1Nc1c([N+](=O)[O-])cncc1[N+](=O)[O-]	37.1 (≈ 135 µM)
CCOC(=O)c1c(C)n(C)c2cc([N+](=O)[O-])c(O)c([N+](=O)[O-])c12	44.9 (≈ 139 µM)
COC(=O)c1scc(C)c1NC(=O)c1ccccc1F	> 44
COc1cc2[nH]c(C(=O)NCCc3ccccc3)cc2c(OC)c1OC	20.3 (≈ 57.3 µM)
Cc1cnc(NC(=O)Cc2cccs2)s1	> 35.7
O=C(C(=O)N1CCCCCC1)c1c[nH]c2ccccc12	> 40.5
CO/N=C(\c1ccccc1)c1cccnc1	23.2 (≈ 109 µM)
O=C(O)C1CN(C(=O)c2ccccc2)c2cc(Cl)ccc2O1 (stereo unspecified)	> 47.7
Cc1cccc(NC(=O)N2CCc3ccccc3C2)c1C	6.5 (≈ 23.2 µM)
O=C(Nc1ccc(NC(=O)c2ccccc2Cl)cc1)c1cccnc1	3 (≈ 8.53 µM)
